Assay results taken from patent US8618154B2, “LXR modulators” (Bristol-Myers Squibb Company, priority 2009, dated 2013).

Tests used:
ABCA1 gene expression = test: Human whole blood assay (hWBA), ABCA1 mRNA induction; assay type: cell-based; conditions: for Emax: Homo sapiens, 4 h, percent of reference pan agonist (maximal activity defined as 100%), read-out: hWBA hABCA1 L30 Max P (%); for EC50: human whole blood, 4 hours, ABCA1 mRNA normalized to L30, read-out: hWBA hABCA1 L30 EC50
Procedure: Human whole blood was collected in EDTA containing tubes and 0.5 mL aliquots were immediately mixed in a 96 well block with the appropriate serial dilution of test compound, in 0.5% DMSO. Compounds were incubated with blood at 37° C. with constant rocking for 4 hours. After incubation, cells were lysed in ABI Nucleic Acid Purification Lysis Solution (Applied Biosystems catalog #4305895) and frozen at −80° C. Following cell lysis, total RNA was purified using an ABI 6100 RNA prep station according to the protocol provided by the manufacturer. cDNAs were synthesized, and mRNAs were quantitated using SYBR-Green Quantitative PCR (Q-PCR) on an ABI Prism 7900HT Sequence Detection System and reagents from Quanta Bioscience Inc (Quanta Bioscience catalog #95047 and 95055).
The quantity of each mRNA was determined by the ΔΔCT method (Michael W. Pfaffl. A new mathematical model for relative quantification in real-time RT-PCR. Nucleic Acids Research, 2001, Vol. 29, No. 9 e45) and normalized to the quantity of two control mRNAs, i.e. ribosomal protein L-30 (L-30) and beta-2-microglobulin (B2M). The induction of ABCA1 and ABCG1 by test compound was graphed as a percent of the reference compound, 2-(4-(5-(5-cyano-1-(2,4-difluorobenzyl)-6-oxo-4-(trifluoromethyl)-1,6-dihydropyridin-2-yl)thiophen-2-yl)-3-methylphenyl)acetic acid, and potency (EC50) and activity (% MAX) were calculated by fitting a sigmoidal response curve as a function of log transformed compound concentration using XLFit software according to the equation y=A+((B−A)/(1+((C/x)^D))).

[1] = system: ABCG1 mRNA in blood cells; test: In vivo potency and maximum ABCG1 induction in cynomolgus monkey; conditions: po; for EC50: Macaca fascicularis, 5 h
Procedure: Compounds of the present invention were tested for their ability to induce the mRNA for the LXR target gene ABCG1 in blood cells when administered orally to cynomolgus monkeys.
Test compounds were formulated in 0.5% carboxymethyl cellulose (CMC, Sigma) and 2% Tween 80 (Sigma) by trituration. Each treatment group contained three male monkeys, each weighing 3.0-6.0 kg at the start of the study. Test compounds were formulated fresh each morning in vehicle, and animals that had been fasted the previous night were dosed between 7 and 7:30 AM by po gavage. For baseline blood cell mRNA determinations, 1 ml of venous blood was collected in an EDTA dry-coated tube and 1 volume of Dulbecco's Phosphate Buffered Saline without calcium or magnesium and 2 volumes of Nucleic Acid Purification Lysis Solution (Applied Biosystems, Inc.) were added. Samples were frozen at −80° C. prior to RNA isolation and analysis. Test compounds were dosed following the baseline sample collection. At 5 hr post-dose, venous blood was collected and processed as above for RNA determinations. An additional 0.5 ml of blood was also collected and analyzed for compound plasma concentrations.
Frozen samples were allowed to thaw at room temperature, and then placed on ice. Total RNA was isolated on the ABI 6100 using a pre-loaded protocol according to the manufacturer's instructions (ABI Manual #4332809 Rev. B).
qScript cDNA Synthesis Kit from Quanta Biosciences, Inc. was used to generate first-strand cDNA from each total RNA sample. 20 μl Reactions were carried out in 96-well Eppendorf AG twin-tec PCR plates on a MJ Research, Inc. model PTC-200 DNA Engine. Approximately 500 ng of total RNA was used for each reaction. Reactions were composed as follows: 4 μl 5× q-Script Reaction Mix plus 3-5 μl nuclease-free water plus 1 μl q-Script Reverse Transcriptase plus 10-12 μl input RNA. After mixing, reactions were centrifuged at 3750 rpm for 2 minutes at room temperature and run on a “q-Script” protocol (25° C. for 5 minutes, followed by 42° C. for 30 minutes, and then 85° C. for 5 minutes) in a MJ Research thermocycler. Each reaction was diluted with 30 μl of nuclease-free water and used immediately for SYBR-green Q-PCR or stored at −20° C. SYBR-Green Q-PCR reactions were performed as follows. Reaction mixtures for the LXR target gene, ABCG1, and the internal standard normalization gene ribosomal protein L30 were prepared using validated forward/reverse primer sets [ABCG1 (X-Mmul-ABCG1-F1 and X-Mmul-ABCG1-R1); ribosomal protein L30 (SYBR-hL30-F1 and SYBR-hL30-R1)]. […]
The relative amount of ABCG1 mRNA was calculated using the second derivative comparative Ct method (2^−ΔΔCt). Quantification was obtained after normalization to ribosomal protein L30 mRNA. […]

SMILES	Emax (ABCA1 gene expression) [%]	EC50 (ABCA1 gene expression) [nM]	EC50 [1] [nM]	Maximum ABCG1 Induction (fold vs. baseline ± S.E.) ([1]; blood cells, 5 hrs post-dose) [fold vs. baseline]
CC(C)(O)c1cn(-c2ccc(-c3cccc(S(C)(=O)=O)c3)cc2)c(C(C)(C)c2ccccc2Cl)n1 [Compound No. 19, Table 1, WO 2007/002563, reference compound]	55	> 1000	630 ± 168	12.4 ± 1.8
CC(C)(O)c1cn(-c2ccc(-c3cc(F)c(CO)c(S(C)(=O)=O)c3)cc2)c(C(C)(C)c2cccc(F)c2Cl)n1 [Example 4, 2-(2-(2-(2-chloro-3-fluorophenyl)propan-2-yl)-1-(3′-fluoro-4′-(hydroxymethyl)-5′-(methylsulfonyl)biphenyl-4-yl)-1H-imidazol-4-yl)propan-2-ol]	34	< 100	141 ± 53	
CC(C)(O)c1cn(-c2ccc(-c3cc(F)c(CO)c(S(C)(=O)=O)c3)cc2F)c(C(C)(C)c2c(Cl)cccc2Cl)n1 [Example 9, 2-(2-(2-(2,6-dichlorophenyl)propan-2-yl)-1-(3,3′-difluoro-4′-(hydroxymethyl)-5′-(methylsulfonyl)biphenyl-4-yl)-1H-imidazol-4-yl)propan-2-ol]	28	< 100	11 ± 6	
